Test results as given in patent US6858591B2, “Antibiotic AA 896 analogs” (Wyeth Holdings Corporation, priority 2001, dated 2005).
In brackets after ≈: the same amount, converted by molar mass. Where two headings read alike, the source gives them in different places.

Legend:
Experiment in all cases: In vitro MIC, broth dilution
Type in all cases: cell-based
[1] = tested on: E. coli GC 4559; details: Escherichia coli, GC4559
[2] = tested on: E. coli GC 4560; details: Escherichia coli, GC4560
[3] = tested on: E. coli GC 3226; details: Escherichia coli, GC3226
[4] = tested on: S. marcescens GC 4077; details: Serratia marcescens, GC4077
[5] = tested on: C. albicans GC 3066; details: Candida albicans, GC3066
[6] = tested on: M. morganii GC 4531; details: Morganella morganii, GC4531
[7] = tested on: K. pneumoniae GC 4534; details: Klebsiella pneumoniae, GC4534
[8] = tested on: E. cloacae GC 3783; details: Enterobacter cloacae, GC3783
[9] = tested on: P. aeruginosa GC 4532; details: Pseudomonas aeruginosa, GC4532
[10] = tested on: CNS GC 4537
Method in brief: (§1)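 NCCLS broth dilution; Mueller-Hinton II; 5×10^5 CFU/ml; 64-0.06 μg/ml; 18 h, 35 °C, ambient air; MIC read as lowest growth-inhibiting concentration.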

[11] = tested on: CNS GC 4538
Method in brief: as §1

[12] = tested on: CNS GC 4547
Method in brief: as §1

[13] = tested on: E. faecalis GC 2242; details: Enterococcus faecalis, GC2242
Method in brief: as §1

[14] = tested on: E. faecalis GC 4555; details: Enterococcus faecalis, GC4555
Method in brief: as §1

[15] = tested on: E. faecalis GC 842; details: Enterococcus faecalis, GC842
Method in brief: as §1

[16] = tested on: S. aureus GC 1131; details: Staphylococcus aureus, GC1131
Method in brief: as §1

[17] = tested on: S. aureus GC 2216; details: Staphylococcus aureus, GC2216
Method in brief: as §1

[18] = tested on: S. aureus GC 4536; details: Staphylococcus aureus, GC4536
Method in brief: as §1

[19] = tested on: E. coli GC 2203; details: Escherichia coli, GC2203
[20] = tested on: P. aeruginosa GC 2214; details: Pseudomonas aeruginosa, GC2214
[21] = S. marcescens GC 4077, read-out: MIC
[22] = C. albicans GC 3066, read-out: MIC
[23] = M. morganii GC 4531, read-out: MIC
[24] = K. pneumoniae GC 4534, read-out: MIC
[25] = E. cloacae GC 3783, read-out: MIC
[26] = P. aeruginosa GC 4532, read-out: MIC
[27] = E. faecalis GC 2242, read-out: MIC
[28] = E. faecalis GC 4555, read-out: MIC
[29] = E. faecalis GC 842, read-out: MIC
[30] = S. aureus GC 1131, read-out: MIC
[31] = S. aureus GC 2216, read-out: MIC
[32] = S. aureus GC 4536, read-out: MIC
[33] = P. aeruginosa GC 2214, read-out: MIC

Compound | MIC [1] [µg/mL] | MIC [2] [µg/mL] | MIC [3] [µg/mL] | MIC [4] [µg/mL] | MIC [5] [µg/mL] | MIC [6] [µg/mL] | MIC [7] [µg/mL] | MIC [8] [µg/mL] | MIC [9] [µg/mL] | MIC [10] [µg/mL] | MIC [11] [µg/mL] | MIC [12] [µg/mL] | MIC [13] [µg/mL] | MIC [14] [µg/mL] | MIC [15] [µg/mL] | MIC [16] [µg/mL] | MIC [17] [µg/mL] | MIC [18] [µg/mL] | MIC [19] [µg/mL] | MIC [20] [µg/mL] | also measured
COc1ccc(Cn2c(=O)ccn([C@@H]3OC([C@H](O)[C@H](NC(=O)CCCCCCCCCCN)C(=O)OC(C)(C)C)[C@@H](O[Si](C)(C)C(C)(C)C)[C@H]3O[Si](C)(C)C(C)(C)C)c2=O)cc1 (stereo partly drawn) [Example 23, tert-Butyl (2S,3R)-2-[(11-aminoundecanoyl)amino]-3-[(3R,4R,5R)-3,4-bis{[tert-butyl(dimethyl)silyl]oxy}-5-(3-(4-methoxybenzyl)-2,4-dioxo-3,4-dihydro-1(2H)-pyrimidinyl)tetrahydro-2-furanyl]-3-hydroxypropanoate] |  |  |  |  |  |  |  |  |  |  |  |  |  |  |  |  |  |  |  |  | MIC ([1]; E. coli GC 4559, read-out: MIC): > 128 µg/mL; MIC ([2]; E. coli GC 4560, read-out: MIC): 128 µg/mL (≈ 141 µM); MIC ([3]; E. coli GC 3226, read-out: MIC): > 128 µg/mL; MIC [4, 21]: 128 µg/mL (≈ 141 µM); MIC [5, 22]: 128 µg/mL (≈ 141 µM); MIC [6, 23]: 128 µg/mL (≈ 141 µM); MIC [7, 24]: > 128 µg/mL; MIC [8, 25]: > 128 µg/mL; MIC [9, 26]: 128 µg/mL (≈ 141 µM); MIC ([10]; CNS GC 4537, read-out: MIC): 128 µg/mL (≈ 141 µM); MIC ([11]; CNS GC 4538, read-out: MIC): 128 µg/mL (≈ 141 µM); MIC ([12]; CNS GC 4547, read-out: MIC): > 128 µg/mL; MIC [13, 27]: 128 µg/mL (≈ 141 µM); MIC [14, 28]: 128 µg/mL (≈ 141 µM); MIC [15, 29]: 128 µg/mL (≈ 141 µM); MIC [16, 30]: > 128 µg/mL; MIC [17, 31]: 128 µg/mL (≈ 141 µM); MIC [18, 32]: 128 µg/mL (≈ 141 µM); MIC ([19]; E. coli GC 2203, read-out: MIC): > 128 µg/mL; MIC [20, 33]: 128 µg/mL (≈ 141 µM)
COc1ccc(Cn2c(=O)ccn([C@@H]3OC([C@H](O)[C@H](NCCCNC(=O)CCCCCCCCCCNC(=O)OCC4c5ccccc5-c5ccccc54)C(=O)OC(C)(C)C)[C@@H](O[Si](C)(C)C(C)(C)C)[C@H]3O[Si](C)(C)C(C)(C)C)c2=O)cc1 (stereo partly drawn) [Example 24, tert-Butyl (21S)-21-[(R)-[(3R,4R,5R)-3,4-bis{[tert-butyl(dimethyl)silyl]oxy}-5-(3-(4-methoxybenzyl)-2,4-dioxo-3,4-dihydro-1(2H)-pyrimidinyl)tetrahydro-2-furanyl](hydroxy)methyl]-1-(9H-fluoren-9-yl)-3,15-dioxo-2-oxa-4,16,20-triazadocosan-22-oate] | > 128 | 128 (≈ 108 µM) | > 128 | 128 (≈ 108 µM) | 128 (≈ 108 µM) | 128 (≈ 108 µM) | > 128 | > 128 | 128 (≈ 108 µM) | > 128 | > 128 | > 128 | 128 (≈ 108 µM) | > 128 | > 128 | > 128 | > 128 | > 128 | > 128 | 128 (≈ 108 µM) | 
COc1ccc(Cn2c(=O)ccn([C@@H]3OC([C@H](O)[C@H](NCCCNC(=O)CCCCCCCCCCN)C(=O)OC(C)(C)C)[C@@H](O[Si](C)(C)C(C)(C)C)[C@H]3O[Si](C)(C)C(C)(C)C)c2=O)cc1 (stereo partly drawn) [Example 25] |  |  |  |  |  |  |  |  |  |  |  |  |  |  |  |  |  |  |  |  | MIC ([1]; E. coli GC 4559, read-out: MIC): > 128 µg/mL; MIC ([2]; E. coli GC 4560, read-out: MIC): 128 µg/mL (≈ 133 µM); MIC ([3]; E. coli GC 3226, read-out: MIC): > 128 µg/mL; MIC [4, 21]: 128 µg/mL (≈ 133 µM); MIC [5, 22]: 128 µg/mL (≈ 133 µM); MIC [6, 23]: 128 µg/mL (≈ 133 µM); MIC [7, 24]: > 128 µg/mL; MIC [8, 25]: > 128 µg/mL; MIC [9, 26]: 128 µg/mL (≈ 133 µM); MIC ([10]; CNS GC 4537, read-out: MIC): 64 µg/mL (≈ 66.5 µM); MIC ([11]; CNS GC 4538, read-out: MIC): 64 µg/mL (≈ 66.5 µM); MIC ([12]; CNS GC 4547, read-out: MIC): 128 µg/mL (≈ 133 µM); MIC [13, 27]: 64 µg/mL (≈ 66.5 µM); MIC [14, 28]: 128 µg/mL (≈ 133 µM); MIC [15, 29]: 128 µg/mL (≈ 133 µM); MIC [16, 30]: 128 µg/mL (≈ 133 µM); MIC [17, 31]: 128 µg/mL (≈ 133 µM); MIC [18, 32]: 128 µg/mL (≈ 133 µM); MIC ([19]; E. coli GC 2203, read-out: MIC): > 128 µg/mL; MIC [20, 33]: 128 µg/mL (≈ 133 µM)
COc1ccc(Cn2c(=O)ccn([C@@H]3OC([C@H](O)[C@H](NCCCNC(=O)[C@@H](NC(=O)[C@H](CCCNC(=N)N[N+](=O)O)NC(=O)N[C@H](C(=O)OCc4ccccc4)C(C)C)[C@@H](O)C(C)C)C(=O)OC(C)(C)C)[C@@H](O[Si](C)(C)C(C)(C)C)[C@H]3O[Si](C)(C)C(C)(C)C)c2=O)cc1 (stereo partly drawn) [Example 26, 1-Benzyl 17-(tert-butyl)(2S,6S,9S,16S)-16-[(R)-[(3R,4R,5R)-3,4-bis{[tert-butyl(dimethyl)silyl]oxy}-5-(3-(4-methoxybenzyl)-2,4-dioxo-3,4-dihydro-1(2H)-pyrimidinyl)tetrahydro-2-furanyl](hydroxy)methyl]-6-(3-{[(2,2-dioxido-2lambda˜1˜-diazanyl)(imino)methyl]amino}propyl)-9-[(1S)-1-hydroxy-2-methylpropyl]-2-isopropyl-4,7,10-trioxo-3,5,8,11,15-pentaazaheptadecane-1,17-dioate] | > 128 | > 128 | > 128 | > 128 | > 128 | > 128 | > 128 | > 128 | > 128 | > 128 | > 128 | > 128 | 128 | > 128 | > 128 | > 128 | > 128 | > 128 | > 128 | 128 | 
COc1ccc(Cn2c(=O)ccn([C@@H]3OC([C@H](O)[C@H](NCCCNC(=O)[C@H](CC(C)C)NC(=O)[C@H](CCCNC(=N)N[N+](=O)O)NC(=O)N[C@H](C(=O)OCc4ccccc4)C(C)C)C(=O)OC(C)(C)C)[C@@H](O[Si](C)(C)C(C)(C)C)[C@H]3O[Si](C)(C)C(C)(C)C)c2=O)cc1 (stereo partly drawn) [Example 28, 1-Benzyl 17-(tert-butyl)(2S,6S,9S,16S)-16-[(R)-[(3R,4R,5R)-3,4-bis{[tert-butyl(dimethyl)silyl]oxy}-5-(3-(4-methoxybenzyl)-2,4-dioxo-3,4-dihydro-1(2H)-pyrimidinyl)tetrahydro-2-furanyl](hydroxy)methyl]-6-(3-{[(2,2-dioxido-2lambda˜1˜-diazanyl)(imino)methyl]amino}propyl)-9-isobutyl-2-isopropyl-4,7,10-trioxo-3,5,8,11,15-pentaazaheptadecane-1,17-dioate] | > 128 | > 128 | > 128 | > 128 | > 128 | > 128 | > 128 | > 128 | > 128 | > 128 | > 128 | > 128 | > 128 | > 128 | > 128 | > 128 | > 128 | > 128 | > 128 | > 128 | 
COc1ccc(Cn2c(=O)ccn([C@@H]3OC([C@H](O)[C@H](NCCCNC(=O)[C@H](CC(C)C)NC(=O)[C@H](CCCNC(=N)N)NC(=O)N[C@H](C(=O)O)C(C)C)C(=O)OC(C)(C)C)[C@@H](O[Si](C)(C)C(C)(C)C)[C@H]3O[Si](C)(C)C(C)(C)C)c2=O)cc1 (stereo partly drawn) [Example 29, (2S,6S,9S,16S)-6-(3-{[Amino(imino)methyl]amino}propyl)-16-[(R)-[(3R,4R,5R)-3,4-bis{[tert-butyl(dimethyl)silyl]oxy}-5-(3-(4-methoxybenzyl)-2,4-dioxo-3,4-dihydro-1(2H)-pyrimidinyl)tetrahydro-2-furanyl](hydroxy)methyl]-9-isobutyl-2-isopropyl-19,19-dimethyl-4,7,10,17-tetraoxo-18-oxa-3,5,8,11,15-pentaazaicosan-1-oic acid] | > 128 | 128 (≈ 107 µM) | > 128 | 128 (≈ 107 µM) | > 128 | 128 (≈ 107 µM) | 128 (≈ 107 µM) | 128 (≈ 107 µM) | 128 (≈ 107 µM) | > 128 | > 128 | > 128 | 128 (≈ 107 µM) | > 128 | 128 (≈ 107 µM) | > 128 | > 128 | > 128 | > 128 | 128 (≈ 107 µM) | 
